The test has as its target T1, SERCA1A (sarcoplasmic/endoplasmic reticulum Ca2+ ATPase) (Oryctolagus cuniculus, UniProt P04191).
T1 construct: gene ATP2A1; purified rabbit skeletal muscle SR membranes expressing the SERCA1A isoform
Briefly: coupled-enzyme ATPase assay on purified SERCA1A from rabbit skeletal muscle. The class given is biochemical.

T1 sequence (P04191 1-993): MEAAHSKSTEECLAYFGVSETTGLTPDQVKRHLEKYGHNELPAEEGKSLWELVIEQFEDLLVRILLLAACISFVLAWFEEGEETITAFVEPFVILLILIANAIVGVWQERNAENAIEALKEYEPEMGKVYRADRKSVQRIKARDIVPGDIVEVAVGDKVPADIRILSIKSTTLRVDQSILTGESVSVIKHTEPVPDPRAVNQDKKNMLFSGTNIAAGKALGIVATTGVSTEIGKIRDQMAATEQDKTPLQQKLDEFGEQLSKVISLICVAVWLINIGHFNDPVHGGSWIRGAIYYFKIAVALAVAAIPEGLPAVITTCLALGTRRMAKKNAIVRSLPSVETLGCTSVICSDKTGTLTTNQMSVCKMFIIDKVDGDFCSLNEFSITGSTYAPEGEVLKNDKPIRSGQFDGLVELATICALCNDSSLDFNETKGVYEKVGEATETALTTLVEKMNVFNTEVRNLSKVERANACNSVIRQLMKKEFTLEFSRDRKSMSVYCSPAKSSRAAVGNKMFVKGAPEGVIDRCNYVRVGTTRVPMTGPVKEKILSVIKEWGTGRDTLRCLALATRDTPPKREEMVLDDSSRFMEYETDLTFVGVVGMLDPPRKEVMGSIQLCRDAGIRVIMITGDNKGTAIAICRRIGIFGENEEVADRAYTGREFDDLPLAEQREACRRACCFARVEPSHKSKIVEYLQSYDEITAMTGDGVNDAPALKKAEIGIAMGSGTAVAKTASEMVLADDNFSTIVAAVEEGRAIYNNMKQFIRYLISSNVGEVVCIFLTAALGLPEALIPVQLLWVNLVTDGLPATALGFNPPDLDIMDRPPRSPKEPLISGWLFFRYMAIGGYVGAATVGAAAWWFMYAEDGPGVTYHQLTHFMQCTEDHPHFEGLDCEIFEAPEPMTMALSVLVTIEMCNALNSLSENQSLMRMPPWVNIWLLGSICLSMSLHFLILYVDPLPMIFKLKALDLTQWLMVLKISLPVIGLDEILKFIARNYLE

The compound `COc1ccc(C[C@@H]2c3cc(Oc4cc(C[C@@H]5c6cc(OC)c(OC)cc6CCN5C)ccc4O)c(OC)cc3CCN2C)cc1` [neferine] had an IC50 of 320 ± 70 µM.

For orientation: IC50 means the midpoint of a concentration-inhibition curve. The low end stands for greater potency, the high end for weaker potency.
